The NIST ThermoML archive (doi:10.1021/je060330k)
± gives the expanded uncertainty stated by the source.

Conditions: Liquid, Closed cell (Static) method

Question: Which “vapor or sublimation pressure” value (295.4 K) does the source give for FCC(F)(F)F [1,1,1,2-tetrafluoroethane] here?
Answer: Its value is 612 ± 1.3 kPa.

Question: And the “vapor or sublimation pressure” value (300 K)?
Answer: The value was 704.4 ± 1.5 kPa.

Question: And the “vapor or sublimation pressure” value (304 K)?
Answer: Its value is 788.5 ± 1.6 kPa.
